Results: ChEMBL document CHEMBL3885861, “Open TG-GATES”

Organism: Rattus norvegicus
Experiment: Open TG-GATES - Regimen: Single
Assay type: toxicity, organism-based, Sprague-Dawley
Design: regimen Single, gender Male, age 6 weeks
Details: in vivo, po, 10 mg/kg, route gavage, dose level Low; for APTT / Bas / Eos / Fbg / Hb / Ht / Lym / MCH / MCHC / MCV / Mono / Neu / PT / Plat / RBC / Ret / WBC: tissue Blood; for KIDNEY_L / KIDNEY_R / KIDNEY_TOTAL: tissue Kidney; for LIVER: tissue Liver; for ALP / ALT / AST / BUN / CRE / Ca / Cl / DBIL / GLC / IP / K / LDH / Na / PL / RALB / TBIL / TC / TG / TP / gamma-GTP: tissue Plasma

Molecule `COc1cc([C@@H]2c3cc4c(cc3[C@@H](O[C@@H]3O[C@@H]5CO[C@@H](C)O[C@H]5[C@H](O)[C@H]3O)[C@H]3COC(=O)[C@H]23)OCO4)cc(OC)c1O` [ETOPOSIDE] has a TERMINAL_BW (3 h) of 200.9 g, an APTT (3 h) of 16.9 s and a Bas (3 h) of 0%. It also gave an Eos (3 h) of 1.2%, a Fbg (3 h) of 201 mg/dL and a Hb (3 h) of 13.4 g/dL. The Ht (3 h) was 39.9%, the Lym (3 h) was 76.4% and the MCH (3 h) was 22.1 pg. For the same molecule, the MCHC (3 h) was 33.7%, the MCV (3 h) was 65.7 fL and the Mono (3 h) was 8%. For the same molecule, the Neu (3 h) was 14.8%, the PT (3 h) was 12.3 s and the Plat (3 h) was 115.3 x10_4/uL. For the same molecule, the RBC (3 h) was 606.6 x10_4/ul, the Ret (3 h) was 10.2% and the WBC (3 h) was 99.6 x10_2/uL. It also gave a KIDNEY_L (3 h) of 0.9 g, a KIDNEY_R (3 h) of 0.9 g and a KIDNEY_TOTAL (3 h) of 1.9 g. The LIVER (3 h) was 9.4 g, the ALP (3 h) was 896.4 IU/L and the ALT (3 h) was 34.2 IU/L. The AST (3 h) was 67.2 IU/L, the BUN (3 h) was 13 mg/dL and the CRE (3 h) was 0.5 mg/dL. For the same molecule, the Ca (3 h) was 10.7 mg/dL, the Cl (3 h) was 104.6 meq/L and the DBIL (3 h) was 0.012 mg/dL. For the same molecule, the GLC (3 h) was 192.8 mg/dL, the IP (3 h) was 9 mg/dL and the K (3 h) was 4.5 meq/L. For the same molecule, the LDH (3 h) was 114.2 IU/L, the Na (3 h) was 141.8 meq/L and the PL (3 h) was 134 mg/dL. For the same molecule, the RALB (3 h) was 3.5 g/dL, the TBIL (3 h) was 0.3 mg/dL and the TC (3 h) was 75.8 mg/dL. It also gave a TG (3 h) of 46.4 mg/dL, a TP (3 h) of 5.4 g/dL and a gamma-GTP (3 h) of 2 IU/L. It also gave a TERMINAL_BW (6 h) of 198.3 g, an APTT (6 h) of 16.9 s and a Bas (6 h) of 0%. The Eos (6 h) was 1%, the Fbg (6 h) was 194.4 mg/dL and the Hb (6 h) was 13.6 g/dL. It also gave a Ht (6 h) of 40.8%, a Lym (6 h) of 79.8% and an MCH (6 h) of 21.6 pg. It also gave an MCHC (6 h) of 33.3%, an MCV (6 h) of 64.9 fL and a Mono (6 h) of 6.4%. It also gave a Neu (6 h) of 13.2%, a PT (6 h) of 11.8 s and a Plat (6 h) of 110.4 x10_4/uL. It also gave an RBC (6 h) of 629.6 x10_4/ul, a Ret (6 h) of 9.8% and a WBC (6 h) of 78.9 x10_2/uL. For the same molecule, the KIDNEY_L (6 h) was 1 g, the KIDNEY_R (6 h) was 1 g and the KIDNEY_TOTAL (6 h) was 2 g. It also gave an LIVER (6 h) of 8.6 g, an ALP (6 h) of 862.6 IU/L and an ALT (6 h) of 35 IU/L. It also gave an AST (6 h) of 66.8 IU/L, a BUN (6 h) of 10.8 mg/dL and a CRE (6 h) of 0.6 mg/dL. It also gave a Ca (6 h) of 10.5 mg/dL, a Cl (6 h) of 104.4 meq/L and a DBIL (6 h) of 0.02 mg/dL. It also gave a GLC (6 h) of 195.4 mg/dL, an IP (6 h) of 10.2 mg/dL and a K (6 h) of 4.6 meq/L. For the same molecule, the LDH (6 h) was 99.4 IU/L, the Na (6 h) was 142 meq/L and the PL (6 h) was 128 mg/dL. It also gave an RALB (6 h) of 3.3 g/dL, a TBIL (6 h) of 0.4 mg/dL and a TC (6 h) of 72.2 mg/dL. For the same molecule, the TG (6 h) was 42.6 mg/dL, the TP (6 h) was 5.2 g/dL and the gamma-GTP (6 h) was 0.8 IU/L. It also gave a TERMINAL_BW (9 h) of 198.7 g, an APTT (9 h) of 16.8 s and a Bas (9 h) of 0%. For the same molecule, the Eos (9 h) was 0.6%, the Fbg (9 h) was 184.6 mg/dL and the Hb (9 h) was 13.5 g/dL. It also gave a Ht (9 h) of 39.7%, a Lym (9 h) of 77% and an MCH (9 h) of 22.1 pg. It also gave an MCHC (9 h) of 33.9%, an MCV (9 h) of 65.1 fL and a Mono (9 h) of 6.8%. For the same molecule, the Neu (9 h) was 15.8%, the PT (9 h) was 11 s and the Plat (9 h) was 113.8 x10_4/uL. It also gave an RBC (9 h) of 611 x10_4/ul, a Ret (9 h) of 8.6% and a WBC (9 h) of 75.9 x10_2/uL. It also gave a KIDNEY_L (9 h) of 0.9 g, a KIDNEY_R (9 h) of 1 g and a KIDNEY_TOTAL (9 h) of 1.9 g. It also gave an LIVER (9 h) of 8.1 g, an ALP (9 h) of 777.2 IU/L and an ALT (9 h) of 32.8 IU/L. For the same molecule, the AST (9 h) was 64.6 IU/L, the BUN (9 h) was 10.2 mg/dL and the CRE (9 h) was 0.6 mg/dL. For the same molecule, the Ca (9 h) was 10.6 mg/dL, the Cl (9 h) was 105.6 meq/L and the DBIL (9 h) was 0.036 mg/dL. The GLC (9 h) was 198.8 mg/dL, the IP (9 h) was 10.4 mg/dL and the K (9 h) was 4.6 meq/L. The LDH (9 h) was 74.6 IU/L, the Na (9 h) was 143.4 meq/L and the PL (9 h) was 127.2 mg/dL. For the same molecule, the RALB (9 h) was 3.4 g/dL, the TBIL (9 h) was 0.4 mg/dL and the TC (9 h) was 70.8 mg/dL. It also gave a TG (9 h) of 35.2 mg/dL, a TP (9 h) of 5.3 g/dL and a gamma-GTP (9 h) of 1.6 IU/L. The TERMINAL_BW (24 h) was 209.8 g, the APTT (24 h) was 15.8 s and the Bas (24 h) was 0%. It also gave an Eos (24 h) of 1%, a Fbg (24 h) of 206.6 mg/dL and a Hb (24 h) of 13.3 g/dL. It also gave a Ht (24 h) of 39.5%, a Lym (24 h) of 79.2% and an MCH (24 h) of 21.7 pg. It also gave an MCHC (24 h) of 33.7%, an MCV (24 h) of 64.3 fL and a Mono (24 h) of 6.6%. For the same molecule, the Neu (24 h) was 13.6%, the PT (24 h) was 11.6 s and the Plat (24 h) was 108.6 x10_4/uL. It also gave an RBC (24 h) of 613.8 x10_4/ul, a Ret (24 h) of 8.9% and a WBC (24 h) of 89.3 x10_2/uL. For the same molecule, the KIDNEY_L (24 h) was 1 g, the KIDNEY_R (24 h) was 1 g and the KIDNEY_TOTAL (24 h) was 2 g. For the same molecule, the LIVER (24 h) was 10.2 g, the ALP (24 h) was 1017 IU/L and the ALT (24 h) was 33 IU/L. It also gave an AST (24 h) of 68 IU/L, a CRE (24 h) of 0.6 mg/dL and a Ca (24 h) of 11.1 mg/dL. The Cl (24 h) was 104.6 meq/L, the DBIL (24 h) was 0.012 mg/dL and the GLC (24 h) was 200.6 mg/dL. It also gave an IP (24 h) of 8.1 mg/dL, a K (24 h) of 4.6 meq/L and an LDH (24 h) of 109.6 IU/L. The Na (24 h) was 141.6 meq/L, the PL (24 h) was 155.2 mg/dL and the RALB (24 h) was 3.5 g/dL. The TBIL (24 h) was 0.3 mg/dL, the TC (24 h) was 87.8 mg/dL and the TG (24 h) was 82.6 mg/dL. For the same molecule, the TP (24 h) was 5.5 g/dL and the gamma-GTP (24 h) was 1.4 IU/L.
